Legend:
[1] = molecular target: Inhibitor of nuclear factor kappa-B kinase subunit alpha (Homo sapiens) (UniProt O15111); details: Compound concentration 1000.0 nM
[2] = molecular target: Death-associated protein kinase 1 (Homo sapiens) (UniProt P53355); details: Compound concentration 1000.0 nM
[3] = molecular target: Serine/threonine-protein kinase RIO2 (Homo sapiens) (UniProt Q9BVS4); details: Compound concentration 1000.0 nM
[4] = molecular target: Serine/threonine-protein kinase Nek5 (Homo sapiens) (UniProt Q6P3R8); details: Compound concentration 1000.0 nM
[5] = molecular target: Cytoplasmic tyrosine-protein kinase BMX (Homo sapiens) (UniProt P51813); details: Compound concentration 1000.0 nM
[6] = molecular target: Histamine H2 receptor (Homo sapiens) (UniProt P25021); details: Compound concentration 10.0 uM
[7] = molecular target: D(1B) dopamine receptor (Homo sapiens) (UniProt P21918); details: Compound concentration 10.0 uM
[8] = molecular target: Cyclin-dependent kinase 4 (Homo sapiens) (UniProt P11802); details: Compound concentration 1000.0 nM
[9] = molecular target: Serine/threonine-protein kinase PLK2 (Homo sapiens) (UniProt Q9NYY3); details: Compound concentration 1000.0 nM
[10] = molecular target: Dual specificity mitogen-activated protein kinase kinase 1 (Homo sapiens) (UniProt Q02750); details: Compound concentration 1000.0 nM
[11] = molecular target: Citron Rho-interacting kinase (Homo sapiens) (UniProt O14578); details: Compound concentration 1000.0 nM
[12] = molecular target: LIM domain kinase 2 (Homo sapiens) (UniProt P53671); details: Compound concentration 1000.0 nM
[13] = molecular target: Phosphatidylinositol 4-phosphate 5-kinase type-1 gamma (Homo sapiens) (UniProt O60331); details: Compound concentration 1000.0 nM
[14] = molecular target: Myosin-IIIb (Homo sapiens) (UniProt Q8WXR4); details: Compound concentration 1000.0 nM
[15] = molecular target: Ephrin type-A receptor 6 (Homo sapiens) (UniProt Q9UF33); details: Compound concentration 1000.0 nM
Chain of Ephrin type-A receptor 6 (Homo sapiens) (Q9UF33 whole entry): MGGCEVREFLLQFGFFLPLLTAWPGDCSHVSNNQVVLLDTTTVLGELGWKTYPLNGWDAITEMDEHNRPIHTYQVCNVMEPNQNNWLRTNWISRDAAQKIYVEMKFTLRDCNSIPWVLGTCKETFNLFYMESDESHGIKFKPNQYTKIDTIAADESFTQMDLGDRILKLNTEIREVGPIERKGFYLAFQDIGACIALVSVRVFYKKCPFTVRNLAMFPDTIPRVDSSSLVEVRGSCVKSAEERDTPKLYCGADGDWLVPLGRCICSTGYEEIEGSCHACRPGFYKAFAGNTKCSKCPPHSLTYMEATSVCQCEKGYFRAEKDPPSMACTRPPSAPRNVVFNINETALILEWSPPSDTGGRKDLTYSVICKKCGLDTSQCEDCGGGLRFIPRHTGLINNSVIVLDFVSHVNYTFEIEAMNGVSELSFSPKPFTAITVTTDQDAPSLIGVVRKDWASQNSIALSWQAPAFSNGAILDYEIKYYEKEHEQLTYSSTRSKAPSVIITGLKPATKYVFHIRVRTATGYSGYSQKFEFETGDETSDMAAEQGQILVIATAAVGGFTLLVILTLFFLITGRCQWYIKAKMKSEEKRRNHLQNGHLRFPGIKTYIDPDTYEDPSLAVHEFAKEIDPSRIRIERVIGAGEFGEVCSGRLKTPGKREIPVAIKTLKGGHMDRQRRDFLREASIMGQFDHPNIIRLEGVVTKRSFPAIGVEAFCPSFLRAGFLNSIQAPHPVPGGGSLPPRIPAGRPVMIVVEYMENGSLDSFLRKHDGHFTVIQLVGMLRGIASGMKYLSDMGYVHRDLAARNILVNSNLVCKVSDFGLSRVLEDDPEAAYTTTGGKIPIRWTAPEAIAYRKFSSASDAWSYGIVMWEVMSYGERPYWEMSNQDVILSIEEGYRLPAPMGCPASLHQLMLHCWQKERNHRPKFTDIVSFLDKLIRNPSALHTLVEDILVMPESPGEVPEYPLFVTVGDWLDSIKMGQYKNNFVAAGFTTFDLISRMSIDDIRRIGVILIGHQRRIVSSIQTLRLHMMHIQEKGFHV

[16] = molecular target: Mitogen-activated protein kinase kinase kinase 10 (Homo sapiens) (UniProt Q02779); details: Compound concentration 1000.0 nM
[17] = molecular target: Serine/threonine-protein kinase Chk2 (Homo sapiens) (UniProt O96017); details: Compound concentration 1000.0 nM
Chain of Serine/threonine-protein kinase Chk2 (Homo sapiens) (O96017 whole entry): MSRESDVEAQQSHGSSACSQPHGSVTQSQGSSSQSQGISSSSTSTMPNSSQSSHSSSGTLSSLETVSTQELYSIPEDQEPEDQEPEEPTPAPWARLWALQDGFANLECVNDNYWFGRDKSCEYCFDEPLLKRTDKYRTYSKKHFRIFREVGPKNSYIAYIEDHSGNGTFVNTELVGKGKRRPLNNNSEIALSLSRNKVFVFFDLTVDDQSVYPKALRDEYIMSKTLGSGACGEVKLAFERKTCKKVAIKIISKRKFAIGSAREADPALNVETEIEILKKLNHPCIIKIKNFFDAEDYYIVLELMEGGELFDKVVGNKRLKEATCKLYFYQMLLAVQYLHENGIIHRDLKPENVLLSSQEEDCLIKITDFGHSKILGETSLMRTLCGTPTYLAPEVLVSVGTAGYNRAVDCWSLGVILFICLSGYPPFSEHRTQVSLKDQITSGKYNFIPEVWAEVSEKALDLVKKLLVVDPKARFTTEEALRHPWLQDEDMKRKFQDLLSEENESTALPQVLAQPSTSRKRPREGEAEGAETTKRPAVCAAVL

[18] = molecular target: Serine/threonine-protein kinase DCLK2 (Homo sapiens) (UniProt Q8N568); details: Compound concentration 1000.0 nM
Chain of Serine/threonine-protein kinase DCLK2 (Homo sapiens) (Q8N568 whole entry): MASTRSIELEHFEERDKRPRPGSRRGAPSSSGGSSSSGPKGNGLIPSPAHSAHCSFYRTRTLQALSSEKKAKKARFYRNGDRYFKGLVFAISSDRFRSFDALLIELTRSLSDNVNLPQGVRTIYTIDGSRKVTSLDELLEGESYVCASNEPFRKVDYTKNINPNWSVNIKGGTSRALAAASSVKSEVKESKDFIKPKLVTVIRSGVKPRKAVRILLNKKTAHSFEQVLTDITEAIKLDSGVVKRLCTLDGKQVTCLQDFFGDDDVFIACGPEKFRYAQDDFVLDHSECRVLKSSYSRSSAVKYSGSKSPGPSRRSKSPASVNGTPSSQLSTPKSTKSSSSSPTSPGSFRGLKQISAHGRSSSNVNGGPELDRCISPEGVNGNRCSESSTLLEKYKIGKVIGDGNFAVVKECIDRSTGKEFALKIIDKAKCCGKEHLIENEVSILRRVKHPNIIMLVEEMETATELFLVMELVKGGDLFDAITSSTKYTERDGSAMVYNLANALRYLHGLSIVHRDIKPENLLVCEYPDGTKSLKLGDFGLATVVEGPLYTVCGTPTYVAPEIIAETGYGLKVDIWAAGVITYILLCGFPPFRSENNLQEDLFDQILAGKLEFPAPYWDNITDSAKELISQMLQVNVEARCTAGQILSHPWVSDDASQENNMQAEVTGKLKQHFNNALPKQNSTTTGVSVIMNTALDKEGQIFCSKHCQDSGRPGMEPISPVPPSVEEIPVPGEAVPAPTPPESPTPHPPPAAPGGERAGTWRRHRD

[19] = molecular target: Platelet-derived growth factor receptor beta (Homo sapiens) (UniProt P09619); details: Compound concentration 1000.0 nM
[20] = molecular target: Substance-P receptor (Homo sapiens) (UniProt P25103); test: Neurokinin 1 (human) CEREP ligand profiling; details: Compound concentration 10.0 uM
[21] = molecular target: Serine/threonine-protein kinase PAK 5 (Homo sapiens) (UniProt Q9P286); details: Compound concentration 1000.0 nM
[22] = molecular target: Serine/threonine-protein kinase Nek11 (Homo sapiens) (UniProt Q8NG66); details: Compound concentration 1000.0 nM
Chain of Serine/threonine-protein kinase Nek11 (Homo sapiens) (Q8NG66 whole entry): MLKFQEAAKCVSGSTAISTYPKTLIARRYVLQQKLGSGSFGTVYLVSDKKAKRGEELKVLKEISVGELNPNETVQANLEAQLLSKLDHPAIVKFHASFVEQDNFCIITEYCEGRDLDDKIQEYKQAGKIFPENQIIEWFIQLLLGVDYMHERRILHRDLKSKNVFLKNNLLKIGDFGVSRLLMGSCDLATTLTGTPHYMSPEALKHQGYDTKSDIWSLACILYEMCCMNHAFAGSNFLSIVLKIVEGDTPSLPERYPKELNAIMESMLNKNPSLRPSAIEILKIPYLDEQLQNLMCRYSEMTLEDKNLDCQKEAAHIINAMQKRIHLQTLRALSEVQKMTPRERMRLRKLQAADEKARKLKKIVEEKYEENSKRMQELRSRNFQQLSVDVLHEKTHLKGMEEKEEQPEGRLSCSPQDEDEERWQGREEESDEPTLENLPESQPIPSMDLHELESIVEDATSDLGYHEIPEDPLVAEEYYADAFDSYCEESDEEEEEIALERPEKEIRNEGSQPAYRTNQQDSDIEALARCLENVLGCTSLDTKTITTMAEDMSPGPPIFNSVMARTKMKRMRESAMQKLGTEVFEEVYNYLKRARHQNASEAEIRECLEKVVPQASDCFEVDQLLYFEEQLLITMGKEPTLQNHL

[23] = molecular target: Phosphatidylinositol 4-kinase beta (Homo sapiens) (UniProt Q9UBF8); details: Compound concentration 1000.0 nM
[24] = molecular target: Calcium/calmodulin-dependent protein kinase type 1D (Homo sapiens) (UniProt Q8IU85); details: Compound concentration 1000.0 nM
[25] = molecular target: Mitogen-activated protein kinase 11 (Homo sapiens) (UniProt Q15759); details: Compound concentration 1000.0 nM
Chain of Mitogen-activated protein kinase 11 (Homo sapiens) (Q15759 whole entry): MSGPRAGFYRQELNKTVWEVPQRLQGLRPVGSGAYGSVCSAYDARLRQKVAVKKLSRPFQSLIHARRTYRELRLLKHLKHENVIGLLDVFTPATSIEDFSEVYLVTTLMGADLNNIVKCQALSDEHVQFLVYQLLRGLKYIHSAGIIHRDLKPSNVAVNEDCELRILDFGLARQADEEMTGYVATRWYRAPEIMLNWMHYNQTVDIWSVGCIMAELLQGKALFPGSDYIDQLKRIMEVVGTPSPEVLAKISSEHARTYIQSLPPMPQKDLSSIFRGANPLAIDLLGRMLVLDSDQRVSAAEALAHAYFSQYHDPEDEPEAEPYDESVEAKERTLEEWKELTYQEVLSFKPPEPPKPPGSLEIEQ

[26] = molecular target: Vascular endothelial growth factor receptor 2 (Homo sapiens) (UniProt P35968); details: Compound concentration 1000.0 nM
[27] = tested on: Proto-oncogene tyrosine-protein kinase receptor Ret (Homo sapiens), P07949 [V804M]; details: Compound concentration 1000.0 nM
[28] = molecular target: Serine/threonine-protein kinase ICK (Homo sapiens) (UniProt Q9UPZ9); details: Compound concentration 1000.0 nM
[29] = molecular target: Atypical kinase COQ8B, mitochondrial (Homo sapiens) (UniProt Q96D53); details: Compound concentration 1000.0 nM
[30] = molecular target: Homeodomain-interacting protein kinase 3 (Homo sapiens) (UniProt Q9H422); details: Compound concentration 1000.0 nM
[31] = molecular target: MAP kinase-activated protein kinase 2 (Homo sapiens) (UniProt P49137); details: Compound concentration 1000.0 nM
Chain of MAP kinase-activated protein kinase 2 (Homo sapiens) (P49137 whole entry, looked up): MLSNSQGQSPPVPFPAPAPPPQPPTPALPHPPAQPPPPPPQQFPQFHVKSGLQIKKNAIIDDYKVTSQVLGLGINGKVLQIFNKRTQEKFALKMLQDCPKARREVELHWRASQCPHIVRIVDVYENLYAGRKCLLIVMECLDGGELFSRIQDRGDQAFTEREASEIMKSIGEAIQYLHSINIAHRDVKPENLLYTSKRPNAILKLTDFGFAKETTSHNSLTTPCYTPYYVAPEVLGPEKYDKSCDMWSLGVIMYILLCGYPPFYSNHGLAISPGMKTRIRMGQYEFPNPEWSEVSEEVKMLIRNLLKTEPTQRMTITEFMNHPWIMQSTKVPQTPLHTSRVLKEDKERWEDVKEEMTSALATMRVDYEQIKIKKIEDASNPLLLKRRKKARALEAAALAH

[32] = molecular target: Bone morphogenetic protein receptor type-1A (Homo sapiens) (UniProt P36894); details: Compound concentration 1000.0 nM
[33] = molecular target: G protein-coupled receptor kinase 3 (Homo sapiens) (UniProt P35626); details: Compound concentration 1000.0 nM
[34] = tested on: Receptor-type tyrosine-protein kinase FLT3 (Homo sapiens), P36888 [R834Q]; details: Compound concentration 1000.0 nM
[35] = molecular target: Mitogen-activated protein kinase kinase kinase 19 (Homo sapiens) (UniProt Q56UN5); details: Compound concentration 1000.0 nM
[36] = tested on: Tyrosine-protein kinase ABL1 (Homo sapiens), P00519 [Y253F]; details: Compound concentration 1000.0 nM
[37] = molecular target: Serine/threonine-protein kinase WNK4 (Homo sapiens) (UniProt Q96J92); details: Compound concentration 1000.0 nM
Chain of Serine/threonine-protein kinase WNK4 (Homo sapiens) (Q96J92 whole entry): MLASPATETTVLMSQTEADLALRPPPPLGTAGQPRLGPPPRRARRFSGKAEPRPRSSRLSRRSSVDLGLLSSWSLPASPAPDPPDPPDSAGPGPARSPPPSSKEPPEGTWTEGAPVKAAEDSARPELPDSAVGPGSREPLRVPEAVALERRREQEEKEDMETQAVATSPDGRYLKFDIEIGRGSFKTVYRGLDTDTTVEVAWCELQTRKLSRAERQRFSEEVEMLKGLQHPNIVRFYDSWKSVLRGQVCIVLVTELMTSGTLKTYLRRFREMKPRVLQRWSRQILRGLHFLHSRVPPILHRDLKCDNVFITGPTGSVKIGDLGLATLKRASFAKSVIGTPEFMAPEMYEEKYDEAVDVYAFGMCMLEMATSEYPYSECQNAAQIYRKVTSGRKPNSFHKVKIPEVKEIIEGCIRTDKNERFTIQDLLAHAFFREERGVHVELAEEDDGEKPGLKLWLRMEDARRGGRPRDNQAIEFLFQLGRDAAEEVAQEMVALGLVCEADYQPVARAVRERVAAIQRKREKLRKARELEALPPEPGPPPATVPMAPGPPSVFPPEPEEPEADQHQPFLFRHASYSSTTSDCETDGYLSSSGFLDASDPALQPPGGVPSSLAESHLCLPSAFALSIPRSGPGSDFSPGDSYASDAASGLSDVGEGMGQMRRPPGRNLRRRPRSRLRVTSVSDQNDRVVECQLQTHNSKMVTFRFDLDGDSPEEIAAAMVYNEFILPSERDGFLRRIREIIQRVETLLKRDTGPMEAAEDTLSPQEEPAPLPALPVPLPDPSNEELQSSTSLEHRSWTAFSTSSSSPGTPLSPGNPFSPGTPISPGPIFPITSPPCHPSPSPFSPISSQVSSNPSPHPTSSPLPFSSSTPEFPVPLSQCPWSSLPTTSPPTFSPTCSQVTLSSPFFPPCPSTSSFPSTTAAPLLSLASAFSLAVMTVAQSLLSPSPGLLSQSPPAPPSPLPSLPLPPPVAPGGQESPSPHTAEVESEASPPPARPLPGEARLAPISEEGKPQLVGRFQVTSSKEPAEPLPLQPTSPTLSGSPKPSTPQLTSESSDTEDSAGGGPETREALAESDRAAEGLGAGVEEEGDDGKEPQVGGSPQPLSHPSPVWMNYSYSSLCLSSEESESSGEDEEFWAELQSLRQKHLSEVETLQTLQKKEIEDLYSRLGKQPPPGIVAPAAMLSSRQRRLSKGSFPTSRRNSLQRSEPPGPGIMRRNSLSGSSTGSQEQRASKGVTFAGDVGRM

[38] = molecular target: Mitogen-activated protein kinase 6 (Homo sapiens) (UniProt Q16659); details: Compound concentration 1000.0 nM
[39] = molecular target: Platelet-derived growth factor receptor alpha (Homo sapiens) (UniProt P16234); details: Compound concentration 1000.0 nM
[40] = molecular target: Ephrin type-A receptor 3 (Homo sapiens) (UniProt P29320); details: Compound concentration 1000.0 nM
[41] = molecular target: Insulin receptor (Homo sapiens) (UniProt P06213); details: Compound concentration 1000.0 nM

## C[C@H](c1ccc(F)cc1)N(Cc1cccc(C(=O)O)c1)C(=O)c1cnc2ccccc2c1 [PF-05105679]
[1]
  residual activity: 93%
[2]
  residual activity: 97%
[3]
  residual activity: 80%
[4]
  residual activity: 100%
[5]
  residual activity: 99%
[6]
  inhibition: -1.14%
[7]
  inhibition: -1.69%
[8]
  residual activity: 100%
[9]
  residual activity: 100%
[10]
  residual activity: 100%
[11]
  residual activity: 100%
[12]
  residual activity: 100%
[13]
  residual activity: 100%
[14]
  residual activity: 100%
[15]
  residual activity: 100%
[16]
  residual activity: 100%
[17]
  residual activity: 91%
[18]
  residual activity: 100%
[19]
  residual activity: 100%
[20]
  inhibition: 18%
[21]
  residual activity: 93%
[22]
  residual activity: 82%
[23]
  residual activity: 98%
[24]
  residual activity: 100%
[25]
  residual activity: 100%
[26]
  residual activity: 100%
[27]
  residual activity: 100%
[28]
  residual activity: 100%
[29]
  residual activity: 86%
[30]
  residual activity: 100%
[31]
  residual activity: 85%
[32]
  residual activity: 100%
[33]
  residual activity: 40%
[34]
  residual activity: 100%
[35]
  residual activity: 72%
[36]
  residual activity: 100%
[37]
  residual activity: 91%
[38]
  residual activity: 100%
[39]
  residual activity: 100%
[40]
  residual activity: 85%
[41]
  residual activity: 100%
